According to publication PMC12746157, “Light-Regulated Agonists Spatiotemporally Activating the Vitamin D Receptor Mitigate Psoriasis-like Inflammation in Mice without Inducing Hypercalcemia” (ACS Central Science, 2025):

Columns and labels:
[1] = Proportions of cis and trans at the photostationary state in DMSO from absorbance spectra (Ernst Fischer method); format: physicochemical
Experimental: 2. Photochemical characterization.
A 50 µM solution of each compound in DMSO was dispensed into a transparent 96-well plate (200 µL per well). The absorption spectra were recorded from 300 to 600 nm with 2 nm fixed intervals using a Tecan Spark 20M Multimode microplate reader. Initial measurements were performed in the dark, followed by spectra acquired immediately after each 3 min period of light irradiation at different wavelengths using 96-well LED array plates (LEDA Teleopto). Theoretical absorbance spectra corresponding to the pure cis isomer (100%) of each compound were calculated in order to obtain the theoretical percentage of cis isomer at each wavelength, according to the method described by Ernst Fischer (1967). […]
Table S6. Proportions of cis and trans at the photostationary state in DMSO. […]

[2] = molecular target: VDR (Homo sapiens, UniProt P11473); experiment: Luminescent proximity homogeneous assay (AlphaScreen): interaction of purified VDR, RxR and TRAP220 coactivator fragment; format: biochemical; conditions: after illumination (365 nm) for 3 min, mean ± SEM; for EC50: n >= 3, read-out: Activity (pEC50) (converted); for Emax: normalized to maximum response of LSN2148936 (100%)
Sequence of VDR (P11473 whole entry, the tested form may be a part): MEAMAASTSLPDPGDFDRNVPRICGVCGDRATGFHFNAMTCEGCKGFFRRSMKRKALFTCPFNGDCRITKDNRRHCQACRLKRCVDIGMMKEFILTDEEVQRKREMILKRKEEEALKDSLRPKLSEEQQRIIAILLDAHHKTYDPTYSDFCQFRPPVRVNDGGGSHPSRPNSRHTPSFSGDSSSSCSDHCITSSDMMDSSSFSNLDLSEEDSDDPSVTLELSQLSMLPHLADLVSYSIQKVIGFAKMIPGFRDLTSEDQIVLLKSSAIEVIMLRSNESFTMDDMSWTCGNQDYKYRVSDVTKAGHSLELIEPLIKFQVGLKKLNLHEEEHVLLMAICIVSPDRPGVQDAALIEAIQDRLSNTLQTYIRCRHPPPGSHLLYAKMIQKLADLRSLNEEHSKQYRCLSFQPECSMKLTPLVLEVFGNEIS
Sequence of VDR (P19793 whole entry partner, the tested form may be a part): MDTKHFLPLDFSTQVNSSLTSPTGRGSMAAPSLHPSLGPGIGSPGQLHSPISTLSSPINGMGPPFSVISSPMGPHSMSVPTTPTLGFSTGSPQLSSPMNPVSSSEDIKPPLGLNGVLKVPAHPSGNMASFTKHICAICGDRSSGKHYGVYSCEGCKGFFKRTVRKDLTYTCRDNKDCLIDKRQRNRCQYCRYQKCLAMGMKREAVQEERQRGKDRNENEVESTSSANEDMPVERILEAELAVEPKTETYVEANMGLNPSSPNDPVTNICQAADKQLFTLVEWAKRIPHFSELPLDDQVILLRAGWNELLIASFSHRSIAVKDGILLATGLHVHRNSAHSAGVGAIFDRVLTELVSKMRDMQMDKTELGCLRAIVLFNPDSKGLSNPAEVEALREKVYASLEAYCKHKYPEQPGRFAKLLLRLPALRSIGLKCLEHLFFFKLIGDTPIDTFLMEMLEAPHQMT
Sequence of VDR (Q15648 whole entry partner, the tested form may be a part): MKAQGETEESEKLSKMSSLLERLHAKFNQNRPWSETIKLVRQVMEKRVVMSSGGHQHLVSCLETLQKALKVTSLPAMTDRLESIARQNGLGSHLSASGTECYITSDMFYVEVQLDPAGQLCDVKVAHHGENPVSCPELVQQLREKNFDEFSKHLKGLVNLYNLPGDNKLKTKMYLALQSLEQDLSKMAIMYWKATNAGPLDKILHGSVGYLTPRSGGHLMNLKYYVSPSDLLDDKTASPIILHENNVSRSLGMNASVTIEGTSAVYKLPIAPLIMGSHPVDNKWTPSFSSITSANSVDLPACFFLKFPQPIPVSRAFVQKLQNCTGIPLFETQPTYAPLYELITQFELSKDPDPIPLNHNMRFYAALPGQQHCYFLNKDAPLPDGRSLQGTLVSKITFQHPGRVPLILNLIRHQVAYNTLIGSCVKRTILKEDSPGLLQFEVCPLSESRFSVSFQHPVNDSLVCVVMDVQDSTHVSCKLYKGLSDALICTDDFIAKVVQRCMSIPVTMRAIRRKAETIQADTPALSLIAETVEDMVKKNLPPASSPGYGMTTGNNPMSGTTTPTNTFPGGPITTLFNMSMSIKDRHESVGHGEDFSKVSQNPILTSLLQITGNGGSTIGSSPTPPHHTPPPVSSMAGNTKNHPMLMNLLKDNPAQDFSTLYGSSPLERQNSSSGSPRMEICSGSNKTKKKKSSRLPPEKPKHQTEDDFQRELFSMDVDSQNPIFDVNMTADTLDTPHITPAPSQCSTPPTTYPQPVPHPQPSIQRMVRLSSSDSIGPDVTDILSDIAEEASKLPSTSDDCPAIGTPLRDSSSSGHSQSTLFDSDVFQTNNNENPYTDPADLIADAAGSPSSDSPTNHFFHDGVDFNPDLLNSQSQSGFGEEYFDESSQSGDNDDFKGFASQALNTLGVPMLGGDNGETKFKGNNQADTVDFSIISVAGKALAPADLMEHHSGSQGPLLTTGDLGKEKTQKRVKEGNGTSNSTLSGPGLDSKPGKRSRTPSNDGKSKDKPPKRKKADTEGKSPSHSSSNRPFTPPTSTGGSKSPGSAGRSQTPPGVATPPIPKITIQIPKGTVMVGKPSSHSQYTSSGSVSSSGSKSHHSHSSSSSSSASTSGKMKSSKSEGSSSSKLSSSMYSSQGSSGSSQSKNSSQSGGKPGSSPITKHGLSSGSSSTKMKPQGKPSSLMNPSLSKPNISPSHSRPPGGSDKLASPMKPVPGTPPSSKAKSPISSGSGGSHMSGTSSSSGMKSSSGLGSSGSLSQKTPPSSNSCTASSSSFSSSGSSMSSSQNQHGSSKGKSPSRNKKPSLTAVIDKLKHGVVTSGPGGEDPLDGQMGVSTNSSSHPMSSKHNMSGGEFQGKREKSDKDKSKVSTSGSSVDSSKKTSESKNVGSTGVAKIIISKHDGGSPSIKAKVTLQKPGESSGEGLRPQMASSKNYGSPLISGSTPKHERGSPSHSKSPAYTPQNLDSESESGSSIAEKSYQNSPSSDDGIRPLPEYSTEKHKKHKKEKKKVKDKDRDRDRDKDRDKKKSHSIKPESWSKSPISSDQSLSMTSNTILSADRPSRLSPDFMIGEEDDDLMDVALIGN
Experimental: The activity of all molecules was evaluated using a luminescent proximity homogeneous assay to study interactions between purified VDR, RxR and a fragment of the transcriptional coactivator TRAP220 (Supporting Information). This method allowed us to monitor the interaction between TRAP220 and the activated VDR-RxR heterodimer, which is of mechanistic and physiological significance. Both the activation of VDR and the VDR-RxR heterodimer formation are necessary to promote the whole complex association. This system efficiently includes conformational events of the receptor upon activation that go beyond a simple binding measurement. […]
The activity of all molecules was evaluated using an in-vitro luminescent proximity homogeneous assay by using the Alphascreen technology (Cat No. 6760619R, Perkin Elmer, now Revvity). In a transparent 96-well preplate, 10X concentrations of the compounds were prepared in assay buffer (0.1% bovine serum albumin, 2 mM 1,4-dithiothreitol, 25 mM HEPES and 100 mM NaCl; pH 7.3). LSN2148936 was used as positive control. Purified histidine-tagged VDR (44 µM), flag-RxRa (5.7 µM), biotin tagged TRAP220 transcriptional coactivator (500 µM), and the donor and acceptor beads from the AlphaScreen kit (2 µL/mL each), were diluted in assay buffer. In the dark, 6 µL/well of each test compound were pipetted on a white, shallow 96-well ProxiPlateTM […]
(Perkin Elmer, now Revvity, Cat.No. 6006290) in duplicate. Immediately, 54 µL of the protein solution were added and the plate was covered and incubated for 30 min at room temperature in the dark. Meanwhile, the plate with the 10X dilutions was illuminated at 365 nm for 3 min in a 96-well DED array plate (LEDA Teleopto), to allow the photoconversion of the molecules to their cis configuration. The illuminated compounds were mixed with the protein solution and incubated as described above for the plate in the dark. After the incubation time, the counts of both, the dark and illuminated plates, were measured in a Tecan Spark 20M Multimode plate reader with defined settings (excitation: 680 nm, emission: 520-620 nm, excitation time: 100ms, integration time: 300 ms). Biotinylated-His6 peptide (PerkinElmer) was used as a quality control reagent for AlphaScreen® assays and to evaluate compound interaction with the method. The raw data were normalized to the effect of the buffer (0%) and the maximum response obtained with LSN2148936 (100%). Dose-response curves and EC50 values were calculated with Graphpad software. Each experiment was performed in triplicate, with 2 replicates per plate.
4. Hydrogen/deuterium exchange coupled to mass spectrometry (HDX-MS)
The HDX-MS experiments were performed with an in-house automated modular system interfaced with an Orbitrap Exploris 480 mass spectrometer.1 Two inter-day experiments were conducted: one in the dark (first day) and one illuminated with 365 nm light (second day). Sample preparation and on-exchange reactions were performed on opaque plates (VWR® Real-Time […]
mm, Part Nº BC5226) light source was positioned above the Tecan system used for sample preparation. The distance between the UV light and the opaque plates was 80 cm. The 365 nm light illuminated the sample preparation process and the on-exchange reaction on the second day.
A 10 µM VDR-LBD protein stock solution was prepared in 20 mM HEPES buffer (with 150 mM NaCl, 10 mM D-L Methionine and 5 mM DTT) at pH 7.5. The compound 11b was prepared at 10 mM in DMSO. The protein: compound-complex (1:10 molar ratio) was pre-incubated for 1h before the first on-exchange reaction. The HDX reaction was initiated by a 5-fold dilution of the protein stock solution, in the presence and absence of compound 11b, in the corresponding Deuterated buffer at room temperature. Samples were prepared in parallel with three replicates of […]
time point, HDX reactions were quenched with a solution of 3 M Urea and 1% TFA (pH 2.5) followed by online proteolysis with an in-house Pepsin immobilized column and desalting […]

Row | Compound | %cis at the photostationary state ([1]; 365 nm) | %trans at the photostationary state ([1]; 365 nm) | %cis at the photostationary state ([1]; 380 nm) | %trans at the photostationary state ([1]; 380 nm) | %cis at the photostationary state ([1]; 405 nm) | %trans at the photostationary state ([1]; 405 nm) | %cis at the photostationary state ([1]; 420 nm) | %trans at the photostationary state ([1]; 420 nm) | %cis at the photostationary state ([1]; 470 nm) | %trans at the photostationary state ([1]; 470 nm) | %cis at the photostationary state ([1]; 500 nm) | %trans at the photostationary state ([1]; 500 nm) | %cis at the photostationary state ([1]; 530 nm) | %trans at the photostationary state ([1]; 530 nm) | EC50 [2] [nM] | Emax [2] [%]
1 | COC(=O)c1ccc(-c2cccc(/N=N/c3ccc(OCC(O)C(C)(C)C)c(C)c3)c2)cc1 (centres unmarked) [Compound 10a] | 93,70% | 6,30% | 91,83% | 8,17% | 60,42% | 39,58% | 58,05% | 41,95% | 29,15% | 70,85% | 25,54% | 74,46% | 20,56% | 79,44% | 1100 | 23 ± 2.65
2 | COC(=O)c1ccc(-c2cccc(/N=N/c3ccc(OCC(O)C(C)(C)C)cc3C)c2)cc1 (centres unmarked) [Compound 10b] | 97,26% | 2,74% | 96,48% | 3,52% | 66,00% | 34,00% | 62,72% | 37,28% | 34,89% | 65,11% | 35,65% | 64,35% | 31,97% | 68,03% | 100 | 44 ± 0.66

The remaining lines, values ahead:

Row | %cis at the photostationary state ([1]; 365 nm) | %trans at the photostationary state ([1]; 365 nm) | %cis at the photostationary state ([1]; 380 nm) | %trans at the photostationary state ([1]; 380 nm) | %cis at the photostationary state ([1]; 405 nm) | %trans at the photostationary state ([1]; 405 nm) | %cis at the photostationary state ([1]; 420 nm) | %trans at the photostationary state ([1]; 420 nm) | %cis at the photostationary state ([1]; 470 nm) | %trans at the photostationary state ([1]; 470 nm) | %cis at the photostationary state ([1]; 500 nm) | %trans at the photostationary state ([1]; 500 nm) | %cis at the photostationary state ([1]; 530 nm) | %trans at the photostationary state ([1]; 530 nm) | EC50 [2] [nM] | Emax [2] [%] | Compound
3 | 97,06% | 2,94% | 95,61% | 4,39% | 63,64% | 36,36% | 60,45% | 39,55% | 33,06% | 66,94% | 34,03% | 65,97% | 30,20% | 69,80% | 339 | 31 ± 3.13 | Cc1cc(/N=N/c2cccc(-c3ccc(CO)cc3)c2)ccc1OCC(O)C(C)(C)C (centres unmarked) [Compound 12a]
4 | 96,19% | 3,81% | 95,15% | 4,85% | 62,30% | 37,70% | 59,96% | 40,04% | 29,61% | 70,39% | 25,15% | 74,85% | 19,72% | 80,28% | 794 | 44 ± 5.37 | Cc1cc(OCC(O)C(C)(C)C)ccc1/N=N/c1cccc(-c2ccc(CO)cc2)c1 (centres unmarked) [Compound 12b]
5 | 96,92% | 3,08% | 95,77% | 4,23% | 63,77% | 36,23% | 60,13% | 39,87% | 32,14% | 67,86% | 33,18% | 66,82% | 29,47% | 70,53% | 95.5 | 61 ± 2.01 | Cc1cc(OCC(O)C(C)(C)C)ccc1/N=N/c1cccc(-c2ccc(CO)cc2C)c1 (centres unmarked) [Compound 12d]
